This note sets out measurements from PMC5703966, “Systemic clearance and brain distribution of carbazole-based cyanine compounds as Alzheimer’s disease drug candidates” (Scientific Reports, 2017).

Series [1] is described as follows: Stability in plasma, microsomes without cofactors and deactivated hepatocytes. To be noted: ICR/CD-1, mouse and human; all species, 37 °C, more than 4 hours; read-out: half-life elimination (t 1/2) in plasma, microsomes and deactivated hepatocytes. Type of series: in vitro ADME. Here is the method:
page 4: Supplemental Methods Blood-to-plasma ratio […] and incubated for an hour at 37 OC. At the end of the incubation period, plasma (CP) is separated from […] folds acetonitrile (ACN) containing berberine chloride as internal standard (IS) by LC-MS/MS (Analytical method seen below). The blood cell partitioning was calculated as follows. (1) Plasma, liver microsomes and hepatocyte binding by RED device The stability of the compounds in plasma, liver microsomes and hepatocyte were studied to ensure the reliability of the binding data. Hepatocyte was deactivated by leaving them on a bench for 2 days and going through a freeze thaw cycle thereafter. […] were inactivated. All validation compounds were incubated at 37 °C over 4 h, and in triplicate. For […] […] Natural logarithm of peak area ratios (compound peak area normalized by IS peak area) were plotted against time and half-life calculated. […] Aliquots (100 µL) were removed from each side of the insert, and analyzed after protein precipitation using 4 folds acetonitrile (ACN) containing berberine chloride as internal standard (IS) by LC-MS/MS (Analytical me thod seen below). […] In vitro stability in liver microsomes and hepatocytes Half-life (t1/2) of SLM or SLOH in liver microsomes was determined in duplicate. […]

Series [2] can be described thus: Systemic clearance and brain distribution in WT and 3 × Tg-AD mice (8 months). Type of series: in vivo, mouse. To be noted: mouse; for Kp: brain interstitial fluid (unbound) versus plasma (unbound), read-out: K puu,brain; for clearance / Vd / half-life / MRT inf: plasma; for Vd: read-out: Vdss; for MRT inf: read-out: MRT 0−∞. How it is done:
(§1) The transgenic (Tg) AD mice (B6; 129-Psen1 ^tm1Mpm Tg (APPSwe, tauP301L) 1Lfa/Mmjax) and the corresponding wild-type (WT) (B6129SF2/J) mice was obtained from the Jackson Laboratory (Bar Harbor, Maine, USA), and maintained by the Animal Facility of Faculty of Health Sciences in University of Macau. Either 27 WT or AD mice (8 months) were randomly separated into 9 groups with 3 mice at each time point. Blood and brain were collected at time points 0.083, 0.167, 0.25, 0.5, 1, 2, 4, 8 and 16 hours after i.v. dosing (1 mg/kg). Mice were euthanized by isoflurane followed by cervical dislocation. All the plasma, urine, bile and brain samples were stored at −70 °C for subsequent analysis. The analytical methods for systemic and brain PK parameters were shown in supplemental information (Supplemental Methods).
(§2) Parameters in animals were determined using non-compartmental analysis. […] Systemic Cl p was calculated as the i.v. dose divided by AUC0−∞ ^iv. The terminal rate constant (K el) was calculated by a linear regression of the log-linear concentration-time curve, and the terminal elimination t 1/2 was calculated as 0.693 divided by K el. Mean residence time from t = 0 to infinity (MRT 0−∞) was calculated as AUMC 0−∞ divided by AUC 0−∞. Apparent steady-state distribution volume (Vd ss) was determined as Cl p multiplied by MRT 0−∞. […] The Cl bile was derived as the amount of (in milligrams) of SLM or SLOH in the bile over the 24-hour interval postdose/AUC0-24h. The influx clearance into brain (K in) was calculated by using the amount of drug in the brain (homogenate) at time t (A, brain (t)) (corrected for the amount of drug remaining in the cerebral vasculature) divided by plasma exposure up to this time point (AUC, plasma (0 − t)). The C u,brain was calculated by A brain (homogenate, ng/g brain) divided by V u,brain (mL/g brain). The unbound ISF to plasma ratio (K puu,brain) was calculated by unbound AUC 0−t of ISF (ng/mL × min) divided by unbound AUC 0–t (ng/mL × min) of plasma.

A further series deals with WT and 3 × Tg-AD mice. The series is described as above. The format is in vivo, mouse. To be noted: for K in: 1 mg/kg i.v.; for K puu,brain in AD mice relative to WT mice: higher in AD mice. Here is the method: as §1, §2
The test system of a further series is mouse hepatocytes. In words: Hepatocyte stability. The format is in vitro ADME. To be noted: well-stirred model.
[3] abbreviates: 3×Tg-AD (B6;129-Psen1tm1Mpm Tg(APPSwe,tauP301L)1Lfa/Mmjax), iv, 1 mg/kg, AD mice 8 months, 1 mg/kg i.v.
The mark [4] stands for this setting: 3×Tg-AD (B6;129-Psen1tm1Mpm Tg(APPSwe,tauP301L)1Lfa/Mmjax), iv, AD mice 8 months, 1 mg/kg i.v., read-out: Cl p (converted).
The mark [5] stands for this setting: 3×Tg-AD (B6;129-Psen1tm1Mpm Tg(APPSwe,tauP301L)1Lfa/Mmjax), iv, AD mice 8 months, 1 mg/kg i.v.
Where [6] appears, read: B6129SF2/J (WT) and 3×Tg-AD, intravenous, 1 mg/kg, WT and AD mice (8 months), no significant difference, read-out: plasma clearance (converted).
Setting [7] is: B6129SF2/J (wild-type), iv, 1 mg/kg, WT mice 8 months, 1 mg/kg i.v.
The mark [8] stands for this setting: B6129SF2/J (wild-type), iv, WT mice 8 months, 1 mg/kg i.v.
Setting [9] is: B6129SF2/J (wild-type), iv, WT mice 8 months, 1 mg/kg i.v., read-out: Cl p (converted).
Where [10] appears, read: iv, AD mice 8 months, 1 mg/kg i.v.

Read-outs that look alike come from different tables or passages of the source.

Turning to `COCCOCCn1c2ccccc2c2cc(/C=C/c3cc[n+](CCO)c4ccccc34)ccc21` [SLOH, (E)-1-(2-hydroxyethyl)-4-(2-(9-(2-(2-metho-xyethoxy)-ethyl)-9H-carbazol-3-yl)vinyl) quinolin-1-ium chloride], the half-life in series [1] was greater than 24 h; in series [2] (setting [8]), 4.3 ± 1.1 h; in series [2] (setting [10]) it was 4.8 ± 1.2 h. The Kp in series [2] (setting [3]) is 8.1; in series [2] (setting [7]), 0.98 ± 0.22. For the same compound, the clearance in series [2] (setting [4]) was 10 mL/min/kg; in series [2] (setting [6]) it was roughly 10 mL/min/kg; in series [2] (setting [9]), 7.5 mL/min/kg. The Vd in series [2] (setting [5]) amounted to 2.3 ± 0.71 L/kg; in series [2] (setting [8]), 2.1 ± 0.45 L/kg. In addition, the MRT inf in series [2] (setting [8]) stood at 3 ± 1.2 h; in series [2] (setting [10]) it was 2.9 ± 0.38 h. Also, the “K in” value is listed as 4.00 ± 0.500 μL/min per g brain in the series on WT and 3 × Tg-AD mice (AD mice 8 months); 1.10 ± 0.100 μL/min per g brain in the series with WT and 3 × Tg-AD mice (WT mice 8 months). Also, in the series with WT and 3 × Tg-AD mice, the “K puu,brain in AD mice relative to WT mice” value is listed as 8 fold. In the series on mouse hepatocytes, the “Hepatocyte scaled Cl hep” value came to 9.67 ± 1.67 mL/min/kg.
For the compound `COCCOCCn1c2ccccc2c2cc(/C=C/c3cc[n+](C)c4ccccc34)ccc21.[I-]` [SLM, (E)-4-(2-(9-(2-(2-methoxyethoxy)ethyl)-9H-carbazol-3-yl)-vinyl)-1-methyl-quinolin-1-iumiodide], the results for the half-life in series [1], in series [2] (setting [8]) and in series [2] (setting [10]) were greater than 24 h, 6 ± 1 h and 3.5 ± 1 h, respectively. Further, the Kp was determined as 11 in series [2] (setting [3]) and 2.5 ± 0.44 in series [2] (setting [7]). The clearance is 13.2 mL/min/kg in series [2] (setting [4]), roughly 11.7 mL/min/kg in series [2] (setting [6]) and 11.3 mL/min/kg in series [2] (setting [9]). The figures for the Vd in series [2] (setting [5]) and in series [2] (setting [8]) were 1.3 ± 0.32 L/kg and 1.3 ± 0.58 L/kg, respectively. Further, the results for the MRT inf in series [2] (setting [8]) and in series [2] (setting [10]) were 1.5 ± 0.18 h and 1.7 ± 0.55 h, respectively. Besides, the “K in” value with WT and 3 × Tg-AD mice (AD mice 8 months) came out at 4.10 ± 1.10 μL/min per g brain; with WT and 3 × Tg-AD mice (WT mice 8 months), 1.70 ± 0.630 μL/min per g brain. Moreover, the “K puu,brain in AD mice relative to WT mice” value with WT and 3 × Tg-AD mice was found to be 4 fold. For the same compound, the “Hepatocyte scaled Cl hep” value with mouse hepatocytes is 8.67 ± 1.67 mL/min/kg.
